These results are taken from patent US20120315654A1, “COMPOSITIONS AND METHODS FOR DETECTING CARDIOTOXICITY” (DUKE UNIVERSITY, priority 2011, published 2012).

Series [1] deals with T1, CrT (Homo sapiens, UniProt P48029).
T1 construct: swapped with the corresponding fragment from the human full-length open reading frame; expressed in transfected cells; host or cells: HL-1 murine atrial cardiomyocyte line, transient transfection with pcDNA3.1(-) human CrT cDNA
T1 sequence (P48029 1-635): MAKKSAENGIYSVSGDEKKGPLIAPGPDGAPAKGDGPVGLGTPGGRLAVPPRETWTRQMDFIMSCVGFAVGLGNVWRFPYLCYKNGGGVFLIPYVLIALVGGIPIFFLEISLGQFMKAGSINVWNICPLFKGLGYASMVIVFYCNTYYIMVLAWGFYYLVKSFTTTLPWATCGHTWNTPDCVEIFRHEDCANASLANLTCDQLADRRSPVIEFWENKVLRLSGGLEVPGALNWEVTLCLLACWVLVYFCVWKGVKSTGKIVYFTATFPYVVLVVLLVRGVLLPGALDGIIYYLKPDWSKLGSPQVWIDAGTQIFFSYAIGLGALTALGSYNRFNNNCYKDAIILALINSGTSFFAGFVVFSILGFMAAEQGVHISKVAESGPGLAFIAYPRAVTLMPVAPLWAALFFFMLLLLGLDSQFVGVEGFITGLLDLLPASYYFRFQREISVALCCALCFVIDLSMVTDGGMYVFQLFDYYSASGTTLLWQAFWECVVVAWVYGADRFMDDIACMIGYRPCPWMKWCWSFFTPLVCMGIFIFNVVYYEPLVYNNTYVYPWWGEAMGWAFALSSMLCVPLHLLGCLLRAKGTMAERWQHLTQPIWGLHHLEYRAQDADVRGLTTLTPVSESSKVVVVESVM
Put plainly: 14C-Cr transport in HL-1 cells expressing the human CrT protein (dose-response, time course, kinetics). The following applies: HL-1 cells expressing human CrT, Michaelis-Menten, no DOX. It counts as cell-based. On the procedure:
The cultures were maintained in a humidified atmosphere of 5% CO2 at 37° C.
(§1) Cells used for Cr transport assays were cultured in 24-well plates coated with fibronectin and gelatin. The wells were washed twice with room temperature choline buffer (150 mmol/L choline chloride; 1 mmol/L CaCl2; 5 mmol/L MgCl2; 2 mmol/L KCl; and 5 mmol/L HEPES-Tris, pH 7.5).
(§2) The cells were lysed with 500 mmol/L NaOH and heated to 80° C. for 30 min. 100 μl of cell lysate was subjected to scintillation counting using a BECKMAN COULTER LS 6500 scintillation counter. Cr transport was normalized to the protein concentration measured using the bicinchoninic acid (BCA) protein assay (PIERCE BIOTECHNOLOGY, Rockford, Ill.).

The target in series [2] is T1, CrT. Briefly: DOX competition assay: 14C-Cr uptake in the presence of DOX and/or B-GPA. It counts as cell-based. The settings on record: acute exposure during uptake; 2 μmol/L DOX, 100 μmol/L B-GPA; control = 1.00. On the procedure:
as §1, §2

For a further series, the target named is T2, Cr transport (Homo sapiens, UniProt P48029).
T2 sequence (P48029 1-635): T1 sequence (P48029 1-635)
The following applies: Dai W. et al., 1999; read-out: IC50 for inhibition of Cr transport; cited from earlier work.

Substrate in series [3]: CN(CC(=O)O)C(=N)N
Briefly: 14C-Cr transport in HL-1 cells expressing the human CrT protein (dose-response, time course, kinetics). It counts as cell-based. The settings on record: other: HL-1 cells expressing human CrT, Michaelis-Menten, no DOX; pH 7.5.

As for `CN(CC(=O)O)C(=N)N` [Cr, Creatine], on CrT [1], the “Cr transport Vmax” value was 42.9±5.24 nmol/mg protein.

Regarding `NC(N)=NCCC(=O)O` [β-GPA], the “Relative Vmax ± SEM” value on CrT [2] came to 0.43 ± 0.11. Further, the half-maximal inhibitory concentration (IC50) on Cr transport was 50 µM.

B1: human CrT (Homo sapiens) (protein)
chain: T1 sequence (P48029 1-635)
notes: swapped with the corresponding fragment from the human full-length open reading frame; expressed in transfected cells; host or cells: HL-1 murine atrial cardiomyocyte line, transient transfection with pcDNA3.1(-) human CrT cDNA
Consider B1, for which, in series [3], the Km was found to be 63.5 ± 2.37 µM.
